Data reported in PubChem BioAssay AID330 (DTP/NCI, 2004).
Toxic doses and inconclusive results are not listed. The calls were made as follows: active = survival T/C of 150% or more; inactive = T/C below 125% in these data.

Test system: P388 leukemia ip, CD2F1 mice, survival T/C
Assay: NCI In Vivo Anticancer Drug Screen. Data for tumor model P388 Leukemia (intraperitoneal) in CD2F1 (CDF1) mice
Conditions: endpoint: median survival time, higher = longer survival
Summary of the method: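 Mice carrying the transplanted tumor received test compound or vehicle. Survival was recorded in each group, and the value is the treated-group measurement divided by that of the vehicle-treated control group.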

Measured: T/C

CC(=O)c1cc2c(cc1O)OC(C)(C)C=C2
inactive: dose: 25.0 mg/kg/injection, schedule: Q01DX005 (ip), vehicle: Klucel (hydroxypropylcellulose) (HPC) 101 % of control | dose: 50.0 mg/kg/injection, schedule: Q01DX005 (ip), vehicle: Klucel (hydroxypropylcellulose) (HPC) 99 % of control | dose: 100.0 mg/kg/injection, schedule: Q01DX005 (ip), vehicle: Klucel (hydroxypropylcellulose) (HPC) 91 % of control | dose: 200.0 mg/kg/injection, schedule: Q01DX005 (ip), vehicle: Klucel (hydroxypropylcellulose) (HPC) 92 % of control

CCOC(=O)Nc1nccs1
inactive: dose: 25.0 mg/kg/injection, schedule: Q01DX009 (ip), vehicle: saline with Tween-80 108 % of control | dose: 50.0 mg/kg/injection, schedule: Q01DX009 (ip), vehicle: saline with Tween-80 103 % of control | dose: 100.0 mg/kg/injection, schedule: Q01DX009 (ip), vehicle: saline with Tween-80 102 % of control | dose: 200.0 mg/kg/injection, schedule: Q01DX009 (ip), vehicle: saline with Tween-80 108 % of control

CCCc1nc2c(=O)[nH]cnc2o1
inactive: dose: 50.0 mg/kg/injection, schedule: Q01DX001 (ip), vehicle: saline with Tween-80 100 % of control | dose: 100.0 mg/kg/injection, schedule: Q01DX001 (ip), vehicle: saline with Tween-80 100 % of control | dose: 200.0 mg/kg/injection, schedule: Q01DX001 (ip), vehicle: saline with Tween-80 100 % of control

CCO/C=C(\C#N)S(=O)(=O)/C(C#N)=C/OCC
inactive: dose: 100.0 mg/kg/injection, schedule: Q04DX002 (ip), vehicle: saline 108 % of control | dose: 200.0 mg/kg/injection, schedule: Q04DX002 (ip), vehicle: saline 101 % of control

O=C(O)C(Cc1ccc(O)cc1)c1ccc(C(Cc2ccc(O)cc2)C(=O)O)cc1 (stereo unspecified)
inactive: dose: 50.0 mg/kg/injection, schedule: Q01DX005 (ip), vehicle: saline with Tween-80 105 % of control | dose: 100.0 mg/kg/injection, schedule: Q01DX005 (ip), vehicle: saline with Tween-80 102 % of control | dose: 200.0 mg/kg/injection, schedule: Q01DX005 (ip), vehicle: saline with Tween-80 100 % of control
